What was measured:
Z-138 cells = assay: Z-138 Proliferation Assay (Cell Titer Glo, 5 days); type: cell-based; conditions: Homo sapiens, Table D-2
Summary of the method: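 Exponentially growing Z-138 cells (10,000 cells/ml) in RPMI 1640 with 10% FBS are exposed to nine-point 3-fold dilutions (final top concentration 20 μM, 0.2% DMSO) for 5 days at 37° C. Viability is measured as ATP by CellTiter-Glo luminescence. The 50% inhibitory concentration comes from a 4-parameter fit.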

PRMT5/MEP50 = target: T1, PRMT5/MEP50 (Homo sapiens, UniProt O14744); assay: PRMT5 Biochemical Assay (PRMT5/MEP50 enzyme assay on peptide substrate, 3H-SAM Flashplate); conditions: Table D-2; read-out: Biochemical IC50
T1 construct: Expressed full-length human Flag-PRMT5/6His-MeP50 protein complex was purified; made in house; host or cells: Spodoptera frugiperda (SF9) insect cells, baculovirus (pDEST8)
T1 sequence (O14744 with tags, fused parts or gaps): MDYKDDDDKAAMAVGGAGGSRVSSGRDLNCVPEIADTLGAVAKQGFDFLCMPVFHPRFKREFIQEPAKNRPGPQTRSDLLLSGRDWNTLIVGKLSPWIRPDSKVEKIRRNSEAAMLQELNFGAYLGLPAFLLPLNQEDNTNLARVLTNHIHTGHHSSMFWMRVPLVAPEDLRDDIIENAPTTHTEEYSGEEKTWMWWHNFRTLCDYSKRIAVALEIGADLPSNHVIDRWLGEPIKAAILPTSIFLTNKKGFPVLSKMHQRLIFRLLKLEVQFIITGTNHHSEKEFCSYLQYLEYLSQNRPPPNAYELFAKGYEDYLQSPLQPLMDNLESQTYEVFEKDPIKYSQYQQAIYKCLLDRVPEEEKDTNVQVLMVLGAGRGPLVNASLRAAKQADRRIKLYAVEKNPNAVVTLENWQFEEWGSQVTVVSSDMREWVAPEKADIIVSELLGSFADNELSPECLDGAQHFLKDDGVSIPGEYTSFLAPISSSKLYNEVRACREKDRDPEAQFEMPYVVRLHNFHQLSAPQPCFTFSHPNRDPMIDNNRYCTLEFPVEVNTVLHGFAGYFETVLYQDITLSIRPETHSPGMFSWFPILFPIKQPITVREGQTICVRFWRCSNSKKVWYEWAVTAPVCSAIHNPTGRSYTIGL
T1 sequence (Q9BQA1 with tags, fused parts or gaps partner limits assumed): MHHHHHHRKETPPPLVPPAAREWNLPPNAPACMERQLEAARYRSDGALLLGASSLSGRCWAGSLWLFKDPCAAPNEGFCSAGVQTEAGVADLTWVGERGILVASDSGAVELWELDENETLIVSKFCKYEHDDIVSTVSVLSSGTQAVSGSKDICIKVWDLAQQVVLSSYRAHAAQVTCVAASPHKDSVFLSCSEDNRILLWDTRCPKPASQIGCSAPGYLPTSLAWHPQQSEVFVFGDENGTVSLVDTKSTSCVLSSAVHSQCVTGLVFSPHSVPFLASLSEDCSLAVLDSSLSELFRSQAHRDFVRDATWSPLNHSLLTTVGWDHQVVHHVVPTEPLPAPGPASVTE

SMILES	EC50 (Z-138 cells) [nM]	IC50 (PRMT5/MEP50) [nM]
Cn1cnc2ccc(-c3cc(NCC(O)CN4CCc5ccccc5C4)ccn3)cc21 (stereo not drawn) [Compound D217]	10000 to 40000	101 to 1000
OC(COc1cccc(-c2cnc3ccccc3c2)c1)CN1CCc2ccccc2C1 (stereo not drawn) [Compound D89]	10000 to 40000	101 to 1000
Cn1ccc2ccc(-c3cc(NCC(O)CN4CCc5ccccc5C4)ncn3)cc21 (stereo not drawn) [Compound D237]	10000 to 40000	101 to 1000
Cn1ccc2cnc(-c3ccnc(NCC(O)CN4CCc5ccccc5C4)c3)nc21 (stereo not drawn) [Compound D239]	1000 to 10000	< 100
OC(COc1cccc(-c2ccc3ncn(C4CCNC4)c3c2)c1)CN1CCc2ccccc2C1 (stereo not drawn) [Compound D209]	1000 to 10000	< 100
CN1CCN(C(=O)Cn2cnc3ccc(-c4cccc(OCC(O)CN5CCc6ccccc6C5)c4)cc32)CC1 (stereo not drawn) [Compound D270]	10000 to 40000	101 to 1000
CN1CCC(n2cnc3ccc(-c4cccc(OCC(O)CN5CCc6ccccc6C5)c4)cc32)CC1 (stereo not drawn) [Compound D221]	1000 to 10000	< 100
CN1CCC(n2cnc3ccc(-c4cccc(OCC(O)CN5CCc6ccccc6C5)c4)cc32)C1 (stereo not drawn) [Compound D219]	1000 to 10000	< 100
O=C(c1ccc(Cn2nccc2-c2ccc(OCC(O)CN3CCc4ccccc4C3)cc2)cc1)N1CCCC1 (stereo not drawn) [Compound D31]	10000 to 40000	101 to 1000
OC(CNc1cc(-c2ccc3ncn(C4CCOCC4)c3c2)ccn1)CN1CCc2ccccc2C1 (stereo not drawn) [Compound D251]	1000 to 10000	< 100
Cn1ncc2cnc(-c3cccc(OCC(O)CN4CCc5ccccc5C4)c3)cc21 (stereo not drawn) [Compound D248]	10000 to 40000	101 to 1000
COc1ccc(-c2cccc(OCC(O)CN3CCc4ccccc4C3)c2)cc1 (stereo not drawn) [Compound D75]	10000 to 40000	101 to 1000
O=C(Cn1ccc2cnc(-c3cccc(OCC(O)CN4CCc5ccccc5C4)c3)nc21)N1CCOCC1 (stereo not drawn) [Compound D222]	10000 to 40000	101 to 1000
O=C(Cn1cnc2ccc(-c3cccc(OCC(O)CN4CCc5ccccc5C4)c3)cc21)N1CCCCC1 (stereo not drawn) [Compound D249]	10000 to 40000	101 to 1000
CNC(=O)Cn1ccc2cnc(-c3ccnc(NCC(O)CN4CCc5ccccc5C4)c3)nc21 (stereo not drawn) [Compound D245]	1000 to 10000	< 100
